Two molecules from patent US10202366B2, “Methods of promoting wound healing using CRM1 inhibitors” (Karyopharm Therapeutics Inc., priority 2013, dated 2019) can be followed below.

The test system of the assay is MM1.S cells. Kind of assay: MTT cell proliferation assay. Type of assay: cell-based. The conditions noted are these: Homo sapiens. Here is the method: The MTT cell proliferation assay was used to study the cytotoxic properties of certain compounds. The assay was performed according to the method described by Roche Molecular Biochemicals, with minor modifications. The assay is based on the cleavage of the tetrazolium salt, MTT, in the presence of an electron-coupling reagent. The water-insoluble formazan salt produced must be solubilized in an additional step. Cells grown in a 96-well tissue culture plate were incubated with the MTT solution for approximately 4 hours. After this incubation period, a water-insoluble formazan dye formed. After solubilization, the formazan dye was quantitated using a scanning multi-well spectrophotometer (ELISA reader). […] The cells were seeded at 5,000-10,000 cells in each well of 96-well plate in 100 μL of fresh culture medium and were allowed to attach overnight. The stock solutions of the compounds were diluted in 100 μL cell culture medium to obtain eight concentrations of each test compound, ranging from 1 nM to 30 μM. […] All optical densities were measured at 490 nm using a Vmax Kinetic Microplate Reader (Molecular Devices). In most cases, the assay was performed in duplicate and the results were presented as a mean percent inhibition to the negative control±SE. The following formula was used to calculate the percent of inhibition: Inhibition (%)=(1−(ODo/OD))×100. […]

As to `CC(C)Oc1cc(-c2ncn(/C=C\C(=O)OCc3cncnc3)n2)cc(C(F)(F)F)c1` [Compound 129, Pyrimidin-5-Ylmethyl (Z)-3-(3-(3-Isopropoxy-5-(Trifluoromethyl)Phenyl)-1H-1,2,4-Triazol-1-Yl)Acrylate], the IC50 (commonly the concentration that inhibits the measured activity by half) was found to be 20 nM.
In the case of `CC(C)Oc1cc(-c2ncn(/C=C\C(=O)OCc3cnccn3)n2)cc(C(F)(F)F)c1` [Compound 130, Pyrazin-2-Ylmethyl (Z)-3-(3-(3-Isopropdxy-5-(Trifluoromethyl)Phenyl)-1h-1,2,4-Triazol-1-Yl)Acrylate], the IC50 stood at 4 nM.
